Experimental data as given in publication PMC11172336, “Exploring Syndecan-4 and MLP and Their Interaction in Primary Cardiomyocytes and H9c2 Cells” (Cells, 2024).
Where a SMILES comes first, the peptide text is derived from it. Where no end group is shown, it is not given here. The star is where a group is joined. Biotin = O=C1N[C@H]2[C@H](CS[C@H]2CCCCC(=O)*)N1; Ahx = NCCCCCC(=O)O

What was measured:
recombinant 6xHis-MLP-WT = target: T1, recombinant 6xHis-MLP-WT (Homo sapiens, UniProt P50461); experiment: Biacore surface plasmon resonance of SDC4cyt and MLP; format: binding; settings: SPR, biotin-ahx-SDC4cyt immobilized on SA chip, 6xHis-MLP-WT injected, 1:1 Langmuir fit, n = 4
T1 construct: All MLP recombinant proteins were full length and had 6xHis tags at the N-terminus; purchased GenScript Biotech Corp
T1 sequence (P50461 1-194): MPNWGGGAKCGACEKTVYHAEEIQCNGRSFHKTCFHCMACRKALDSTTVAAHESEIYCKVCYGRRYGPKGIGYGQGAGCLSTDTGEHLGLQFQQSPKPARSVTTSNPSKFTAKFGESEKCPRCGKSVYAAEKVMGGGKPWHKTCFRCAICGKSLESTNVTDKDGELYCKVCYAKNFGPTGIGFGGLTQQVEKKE
Protocol: A streptavidin (SA) chip (BR1000032, Cytiva, Marlborough, MA, USA) was conditioned with three 1 min injections of 1 × Biacore running buffer (BR100826, Cytiva, Marlborough, MA, USA), and biotinylated SDC4cyt was immobilized at 133–350 resonance units (RUs). Recombinant 6xHis-MLP-WT was dialyzed into 1 × Biacore running buffer, and increasing concentrations were injected over the chip’s surface at a flow rate of 30 µL per minute for 180 s. For the different runs, concentration ranges spanned 2.9–14.6 nM, 1.2–100 nM, and 21.2–500 nM. The dissociation time was set to 600 s. Sensorgrams were analyzed using the Biacore X100 software (Version 2.0.1) with the assumption of 1:1 binding (Langmuir binding model).
The binding of SDC4cyt and MLP was further investigated with surface plasmon resonance (SPR), where a biotinylated SDC4cyt peptide was immobilized on an SA chip, and a serial dilution of recombinant 6xHis-MLP-WT protein was injected over the chip. The results were analyzed by fitting with a 1:1 interaction model (Langmuir). The dissociation equilibrium constant (kD) was 15.6 ± 7.8 nM, with an association constant (ka) of (8.7 ± 1.4) × 10^4 M^−1 s^−1 and a dissociation rate constant (kd) of (12.2 ± 5.3) × 10^−4 s^−1, indicating a strong interaction (Figure 2D). […]

[1] = system: cytoplasmic domain of syndecan-4 (SDC4cyt); experiment: ELISA-based assay, wells coated with MLP peptides, overlaid with biotin-SDC4cyt; format: binding, human; settings: for biotinylated SDC4cyt binding to mutated MLP peptide compared with MLP-WT peptide: 10 µg 30-mer peptide coated, SDC4cyt normalized to SDC4scram, related to MLP-WT (100%), n = 16, Mann-Whitney U; for biotin-SDC4cyt binding to 30 amino acid-long overlapping MLP-WT peptides: 10 µg peptide coated, biotinylated peptide 2-5 µM, 2 h 37 °C, absorbance 450 nm, normalized to SDC4scram, n = 12-28
Protocol: (§1) 96-well ELISA microplates were coated with 10 µg of WT or mutated human 6xHis-MLP recombinant proteins or 10 µg of MLP peptides in PBS, and rotated at 4 °C overnight. Each well was rinsed with 0.05% Tween-20 in PBS (PBS-T) and blocked with 0.5% gelatin (G-1890, Sigma Merck, Darmstadt, Germany) for one hour at room temperature before incubation with the given biotinylated peptides at a final concentration of 2–5 µM for two hours at 37 °C with gentle agitation. Each well was then thoroughly washed with PBS-T five times before incubation with 100 µL of Biotin-HRP (A0185, Sigma Merck, Darmstadt, Germany) for 30 min at room temperature with gentle agitation. Each well was then washed with PBS-T 5 times before incubation with 100 µL of Ultra TMB substrate solution (34028, Thermo Fisher Scientific, Waltham, MA, USA) for 15–30 min at room temperature with gentle agitation to develop a blue color signal. The reaction was stopped with 100 µL of 2 M hydrochloric acid (HCl) per well (yellow color development). The absorbance of each well was read at 450 nm (Hidex sense multimodal microplate reader, Åbo, Finland).
We next aimed to identify the syndecan-4-MLP-binding domain(s). […]
Multiple human mutations in MLP are associated with hypertrophic cardiomyopathy (HCM) or dilated cardiomyopathy (DCM) (illustrated in Figure 2E). […] To test whether syndecan-4 binding to MLP was affected by any of the HCM- or DCM-associated mutations, we used an ELISA-based assay, where wells were coated with WT or mutated MLP peptide sequences.

human MLP = experiment: Peptide array overlay of MLP 20-mers with biotinylated peptide; format: binding; settings: 20-mers with 3 amino acid offset, overlay overnight at 4 °C, n = 3
Protocol: Human, rat, and mouse MLP were synthesized as overlapping 20-mers with three amino acid offsets onto cellulose membranes by an automated MultiPep peptide synthesizer (INTAVIS Bioanalytical instruments AG, Tübingen, Germany). After blocking, membranes were incubated with a biotin-ahx-SDC4cyt (SDC4cyt) peptide, a scrambled biotin-ahx-SDC4cyt (SDC4scram), a custom-made MLP antibody (#R06991, GenScript Biotech Corp, Piscataway, NJ, USA), or a commercially available MLP antibody (sc-166930, Santa Cruz, Dallas, TX, USA) overnight at 4 °C. The remaining consequent steps were identical to those performed for immunoblotting, as described further below.
We next aimed to identify the syndecan-4-MLP-binding domain(s). A biotinylated peptide covering the cytoplasmic domain of syndecan-4 (SDC4cyt) was overlaid onto 20’mer overlapping peptides covering the full length of human MLP.

recombinant 6xHis-MLP = experiment: ELISA-based MLP self-association assay, coated recombinant 6xHis-MLP overlaid with biotinylated MLP-WT peptides; format: binding, human; settings: 10 µg protein coated; biotinylated peptide 2-5 µM; PBS-only wells subtracted; n = 8
Protocol: as §1
To more precisely map the sites of self-association in MLP, an ELISA-based screening method was used. Full-length recombinant 6xHis-MLP-WT protein was coated into wells and overlayed with biotinylated overlapping MLP-WT peptides, together representing the full-length MLP sequence. […] Furthermore, to test whether mutations could affect self-association, wells were instead coated with mutated recombinant 6xHis-MLP proteins and overlayed with the biotinylated MLP-WT peptides, mimicking a heterozygous interaction. Compared to the WT recombinant protein, MLP peptides aa 50–79 and 125–154 bound weaker to most of the mutated MLP recombinant proteins, except for the HCM-associated L44P (at aa 125–154) and C58G mutations (at aa 50–79 and […]) (Figure 5D, left and right panel). A larger increase in N- and C-terminal binding was also observed for C58G.

CC[C@H](C)[C@H](NC(=O)[C@@H]1CCCN1C(=O)[C@H](CCCCN)NC(=O)[C@H](CCCCN)NC(=O)CNC(=O)[C@H](CC(C)C)NC(=O)[C@H](CC(=O)O)NC(=O)[C@H](Cc1ccc(O)cc1)NC(=O)[C@H](CO)NC(=O)CNC(=O)[C@H](CCC(=O)O)NC(=O)[C@H](CC(=O)O)NC(=O)[C@H](CCCCN)NC(=O)[C@H](CCCCN)NC(=O)[C@H](CCCCN)NC(=O)[C@H](CCSC)NC(=O)[C@H](CCCNC(=N)N)NC(=O)CCCCCNC(=O)CCCC[C@@H]1SC[C@@H]2NC(=O)N[C@@H]21)C(=O)N[C@@H](Cc1ccc(O)cc1)C(=O)N[C@@H](CCCCN)C(=O)N[C@@H](CCCCN)C(=O)N[C@@H](C)C(=O)N1CCC[C@H]1C(=O)N[C@H](C(=O)N[C@@H](CC(N)=O)C(=O)N[C@@H](CCC(=O)O)C(=O)N[C@@H](Cc1ccccc1)C(=O)N[C@@H](Cc1ccc(O)cc1)C(=O)N[C@@H](C)C(=O)O)[C@@H](C)O [SDC4cyt] ({Biotin-Ahx}-RMKKKDEGSYDLGKKPIYKKAPTNEFYA-OH)
kon (recombinant 6xHis-MLP-WT; read-out: association constant (ka)): 87000 M⁻¹ s⁻¹
koff (recombinant 6xHis-MLP-WT; read-out: dissociation rate constant (kd)): 0.00122 s⁻¹

AAHERGIYCKVCYGRRYGPKGIGYGQGAGC [MLP-S54R,E55G, 30-mer human MLP peptide with S54R,E55G mutation]
biotinylated SDC4cyt binding to mutated MLP peptide compared with MLP-WT peptide [1]: significantly weaker

AAHESEIYCKVCYGCRYGPKGIGYGQGAGC [MLP-R64C, 30-mer human MLP peptide with R64C mutation]
biotinylated SDC4cyt binding to mutated MLP peptide compared with MLP-WT peptide [1]: tendency of reduced binding

AAHESEIYCKVCYGRRYGPKGIRYGQGAGC [MLP-G72R, 30-mer human MLP peptide with G72R mutation]
biotinylated SDC4cyt binding to mutated MLP peptide compared with MLP-WT peptide [1]: tendency of reduced binding

AAHESEIYCKVCYGRRYGPRGIGYGQGAGC [MLP-K69R, 30-mer human MLP peptide with K69R mutation]
biotinylated SDC4cyt binding to mutated MLP peptide compared with MLP-WT peptide [1]: tendency of reduced binding

CNGRSFHKTCFHCMACRKALDRTTVAAHES [MLP-S46R, 30-mer human MLP peptide with S46R mutation]
biotinylated SDC4cyt binding to mutated MLP peptide compared with MLP-WT peptide [1]: significantly weaker

CNGRSFHKTCFHCMACRKAPDSTTVAAHES [MLP-L44P, 30-mer human MLP peptide with L44P mutation]
biotinylated SDC4cyt binding to mutated MLP peptide compared with MLP-WT peptide [1]: significantly weaker

GTKYPKMDRGKLFKYKAKPEDNESAYIK [SDC4scram]
binding to 20-mer overlapping human MLP peptides on membrane (human MLP): did not recognize any human MLP sequence

MLP-WT peptide aa 25–54: 30 amino acid-long overlapping MLP-WT peptide, amino acids 25–54 (CNGRSFHKTCFHCMACRKALDSTTVAAHES)
biotin-SDC4cyt binding to 30 amino acid-long overlapping MLP-WT peptides [1]: binding was confirmed

MLP-WT peptide aa 50–79: 30 amino acid-long overlapping MLP-WT peptide, amino acids 50–79, with or without N-terminal biotin (AAHESEIYCKVCYGRRYGPKGIGYGQGAGC)
biotin-SDC4cyt binding to 30 amino acid-long overlapping MLP-WT peptides [1]: binding was confirmed
binding of biotinylated MLP-WT peptide to full-length recombinant 6xHis-MLP-WT (self-association) (recombinant 6xHis-MLP): strongest binding

MLP-WT peptide aa 100–129: 30 amino acid-long overlapping MLP-WT peptide, amino acids 100–129, with or without N-terminal biotin (RSVTTSNPSKFTAKFGESEKCPRCGKSVYA)
biotin-SDC4cyt binding to 30 amino acid-long overlapping MLP-WT peptides [1]: binding was confirmed
binding of biotinylated MLP-WT peptide to full-length recombinant 6xHis-MLP-WT (self-association) (recombinant 6xHis-MLP): Minimal binding

MLP-WT peptide aa 125–154: 30 amino acid-long overlapping MLP-WT peptide, amino acids 125–154, with or without N-terminal biotin
biotin-SDC4cyt binding to 30 amino acid-long overlapping MLP-WT peptides [1]: binding was confirmed
binding of biotinylated MLP-WT peptide to full-length recombinant 6xHis-MLP-WT (self-association) (recombinant 6xHis-MLP): strongest binding

MLP-WT peptide aa 165–194: biotinylated 30-mer MLP-WT peptide, amino acids 165–194 (Biotin-ELYCKVCYAKNFGPTGIGFGGLTQQVEKKE; cysteine pairing not given here)
binding of biotinylated MLP-WT peptide to full-length recombinant 6xHis-MLP-WT (self-association) (recombinant 6xHis-MLP): Minimal binding

MPNRGGGAKCGACEKTVYHAEEIQCNGRSF [MLP-W4R, 30-mer human MLP peptide with W4R mutation]
biotinylated SDC4cyt binding to mutated MLP peptide compared with MLP-WT peptide [1]: did not alter the binding
